Structures are written as SMILES. pEC50, pIC50: −log10 of the molar value. Where only a bound is given, the exact number is not on record here.

The target in the first experiment is SARS-CoV-2 3CL-protease (Severe acute respiratory syndrome coronavirus 2 (2019-nCoV) (SARS-CoV-2), UniProt P0DTD1). Kind of experiment: biochemical. The note with it: read-out: FRET IC50.
`CC(C)(C)C[C@H](NC(=O)c1cc2c(F)cccc2[nH]1)C(=O)N1C[C@]2(C[C@H]1C#N)C(=O)Nc1ccccc12` [Compound 21]: the pIC50 is more than 7.00.

On to `CC(C)C[C@@H](C(=O)N1C[C@]2(C[C@H]1C=O)C(=O)Nc1ccccc12)N(C)C(=O)OCc1ccccc1` [Compound 24], for which the pIC50 was 6.00 to 7.00.

As for `CN(C(=O)OCc1ccccc1)[C@@H](Cc1ccccc1)C(=O)N1C[C@]2(C[C@H]1C#N)C(=O)Nc1ccccc12` [Compound 41], the pIC50 was more than 7.00.

In the next experiment the test system is 229E human corona virus (hCoV). Briefly: 229E live virus assay. The conditions noted are these: Human coronavirus 229E, MRC5, 144 h, read-out: 229E EC50. It is filed as cell-based, hCoV-229E.
For the compound `CN(C(=O)c1cc2c(F)cc(F)cc2[nH]1)[C@@H](Cc1ccccc1)C(=O)N1C[C@]2(C[C@H]1C#N)C(=O)Nc1ccccc12` [Compound 81], the pEC50 is more than 7.00.

The experiment is the same for the next values; noted with them: MRC-5 cells, MOI 0.05, 6 days at 34° C., ATPlite readout, run in duplicate; read-out: 229E EC50.
`CC(C)C[C@H](NC(=O)OCc1ccccc1)C(=O)N1C[C@]2(C[C@H]1C#N)C(=O)Nc1ccccc12` [Compound 1]: the negative-log EC50 (pEC50) is 6.00 to 7.00.

As for `COc1cccc2[nH]c(C(=O)N[C@@H](CC(C)C)C(=O)N3C[C@]4(C[C@H]3C#N)C(=O)Nc3ccccc34)cc12` [Compound 11], the negative logarithm of the EC50 (pEC50) is more than 7.00.

`COc1cccc2[nH]c(C(=O)N[C@H](CC(C)C)C(=O)N3C[C@]4(C[C@H]3C#N)C(=O)Nc3ccccc34)cc12` [Compound 12]: the pEC50 was 6.00 to 7.00.

Consider `COc1cccc2[nH]c(C(=O)N[C@H](CC(C)(C)C)C(=O)N3C[C@]4(C[C@H]3C#N)C(=O)Nc3ccccc34)cc12` [Compound 16], for which the negative logarithm of the EC50 (pEC50) was 6.00 to 7.00.

As to `COc1cccc2[nH]c(C(=O)N[C@@H](CC3CCC3)C(=O)N3C[C@]4(C[C@H]3C#N)C(=O)Nc3ccccc34)cc12` [Compound 17], the negative-log EC50 (pEC50) is more than 7.00.

For the compound `COc1cccc2[nH]c(C(=O)N[C@@H](CC(C)C)C(=O)N3C[C@]4(C[C@H]3C=O)C(=O)Nc3ccccc34)cc12` [Compound 23], the negative logarithm of the EC50 (pEC50) was more than 7.00.

As for `COc1cccc2[nH]c(C(=O)N[C@@H](CC(C)C)C(=O)N3C[C@]4(C[C@H]3C(=O)C(=O)NC3CC3)C(=O)Nc3ccccc34)cc12` [Compound 31], the pEC50 is 6.00 to 7.00.

On to `CC(C)C[C@@H](C(=O)N1C[C@]2(C[C@H]1C#N)C(=O)Nc1ccccc12)N(C)C(=O)OCc1ccccc1` [Compound 39], for which the pEC50 was less than 6.00.

On to `CN(C(=O)OCc1ccccc1)[C@@H](CC1CCC1)C(=O)N1C[C@]2(C[C@H]1C#N)C(=O)Nc1ccccc12` [Compound 89], for which the negative-log EC50 (pEC50) was 6.00 to 7.00.

With `CN(C(=O)c1cc2c(F)cc(F)cc2[nH]1)[C@@H](CC1CCC1)C(=O)N1C[C@]2(C[C@H]1C#N)C(=O)Nc1ccccc12` [Compound 91], the pEC50 is more than 7.00.

`C=CCN(C(=O)OCc1ccccc1)[C@@H](CC(C)C)C(=O)N1C[C@]2(C[C@H]1C#N)C(=O)Nc1ccccc12` [Compound 96]: the pEC50 is 6.00 to 7.00.

Take `CCCN(C(=O)OCc1ccccc1)[C@@H](CC(C)C)C(=O)N1C[C@]2(C[C@H]1C#N)C(=O)Nc1ccccc12` [Compound 97]: the pEC50 is less than 6.00.

Take `CCCN(C(=O)c1cc2c(F)cccc2[nH]1)[C@@H](CC(C)C)C(=O)N1C[C@]2(C[C@H]1C#N)C(=O)Nc1ccccc12` [Compound 98]: the negative-log EC50 (pEC50) is 6.00 to 7.00.

As for `CC(C)CC[C@@H](C(=O)N1C[C@]2(C[C@H]1C#N)C(=O)Nc1ccccc12)N(C)C(=O)c1cc2c(F)cc(F)cc2[nH]1` [Compound 104], the negative logarithm of the EC50 (pEC50) was more than 7.00.

In general, pIC50 refers to −log10 of the IC50, conventionally taken in molar units. The pEC50 is −log10 of the EC50, conventionally taken in molar units.

The values are drawn from patent publication US11384090B2, “Spiropyrrolidine derived antiviral agents” (priority 2020, dated 2022).
